In article PMC3791928, “Preparation and First Preclinical Evaluation of [^18F]FE@SNAP: A Potential PET Tracer for the Melanin-Concentrating Hormone Receptor-1 (MCHR1)” (Scientia Pharmaceutica, 2013):
Structures can show the parent of a compound that is named as a salt. Where two headings read alike, the source gives them in different places.

Tests used:
[1] = design: method as in PMID 23829932; conditions: evaluated previously; cited from earlier work
[2] = plasma stability in rat plasma; format: in vitro ADME; conditions: for degradation in rat plasma (in words): after 120 min
Description: (§1) The stability of [^18F]FE@SNAP in human and rat plasma was determined according to Nics et al.. 1800 μL of lithium-heparinized plasma (rat and human, respectively) were pre-incubated under physiological conditions (PBS, pH 7.4, 37°C) in a shaking incubator for 5 minutes. 36 μL [^18F]FE@SNAP (corresponding to 2% ethanol v/v in the total volume) were added and the plasma vial was vortexed for at least 10 seconds. After defined points in time (0 and 120 min), 500 μL of the incubation-mixture were added to a preconditioned (with 5 mL methanol followed by 5 mL water) SPE-cartridge (Oasis). The cartridge was then eluted into a collection tube, washed with 5 mL of 5% methanol in water (v/v) into a second tube, and eluted with 3 mL of THF into a third tube. 20 μL of the eluate-solution of tube two and three were injected into the analytical HPLC (mobile phase: (water/acetic acid 97.5/2.5 v/v; 2.5 g/L ammonium acetate; pH 3.5)/acetonitrile 70/30 v/v; flow: 2mL/min).

HPLC-based logD analysis = format: physicochemical; conditions: ODP-50 column, phosphate buffer pH 7.4, n=3
Description: LogD values were determined using an HPLC-based assay according to Donovan and Pescatore. A cocktail of two internal standards (toluene and triphenylene) with known logD and k′ values and FE@SNAP in methanol were injected into a short polymeric ODP-50 column. A linear gradient from 10% methanol/90% phosphate buffer (pH 7.4) to 100% methanol within 9.4 min at a flow rate of 1.5 mL/min was applied. Detection was performed at 260 nm and 285 nm.

[3] = plasma free fraction (centrifugal filter units); format: in vitro ADME; conditions: human plasma, n=3
Description: The method used was modified from Parsey et al.. 1 mL of heparinized plasma (rat and human, respectively) were mixed with 10–50 μL [^18F]FE@SNAP. 200 μL aliquots were pipetted into the centrifugal filter units and the total radioactivity was measured in a Gamma Counter. After the centrifugation step (2.000 × g, 50 min), 50 μL of the obtained filtrate was back-measured for radioactivity. For the determination of the plasma free fraction (f1), the ratio of filtrate to total activity concentration was calculated.

hMCHR1 = molecular target: T1, hMCHR1 (Homo sapiens, UniProt Q99705); assay: saturation binding of [^18F]FE@SNAP on CHO-K1 cell membranes expressing hMCHR1; conditions: CHO-K1 membranes expressing hMCHR1, room temperature, 120 min, n=2
T1 construct: purchased PerkinElmer; host or cells: CHO-K1 cell membranes (recombinant expression)
T1 sequence (Q99705 whole entry): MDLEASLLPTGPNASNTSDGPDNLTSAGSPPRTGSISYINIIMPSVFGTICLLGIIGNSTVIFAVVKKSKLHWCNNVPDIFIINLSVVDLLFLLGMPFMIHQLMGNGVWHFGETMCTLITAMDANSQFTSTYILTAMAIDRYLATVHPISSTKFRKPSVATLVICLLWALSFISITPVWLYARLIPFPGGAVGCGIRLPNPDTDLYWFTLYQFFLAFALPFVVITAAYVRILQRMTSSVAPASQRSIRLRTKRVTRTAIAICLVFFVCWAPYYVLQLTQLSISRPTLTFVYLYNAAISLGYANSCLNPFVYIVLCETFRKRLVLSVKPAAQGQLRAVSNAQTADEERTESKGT
Description: The method used was conducted according to Mashiko et al. with minor modifications. CHO-K1 cell membranes expressing hMCHR1 (10 μg/mL) were dissolved in 500 μL and a 50 mM Tris buffer (pH 7.4) (containing 10 mM MgCl2, 2 mM EDTA, 0.1% bacitracin and 0.2% BSA). For the evaluation of the equilibrium dissociation constant (Kd) of [^18F]FE@SNAP, several concentrations (0–500 nM) of [^18F]FE@SNAP were added. The membranes were incubated in vials at room temperature for 120 min. Bound and free fractions of the radioligand were separated by centrifugation at 40.000 × g for 20 min. The supernatants were removed into new vials. The pellets were washed with 800 μL of the ice cold Tris buffer, which was added to the supernatant, and the pellets were dissolved in 1300 μL of the Tris buffer. The radioactivity in the vials was measured by a Gamma Counter. The Kd values were calculated by using GraphPad Prism software Version 5.0 (La Jolla, CA, USA).

[4] = tested on: CYP450, human liver microsomes; assay: stability against liver microsomes (CYP450), human; format: in vitro ADME; conditions: after 60 min, n=4
Description: (§2) The method used was described by Nics et al.. Briefly, liver microsomes (pooled from human or rat origin) were pre-incubated under physiological conditions (PBS, pH 7.4, 37°C) with a NADPH-generating system (solution-A: NADP+, glucose-6-phosphate and magnesium-chloride in H2O and solution-B: glucose-6-phosphate dehydrogenase in sodium citrate) for 5 min. 6 μL of [^18F]FE@SNAP, which correspond to 2% ethanol (v/v) in the total volume, were added. Enzymatic reactions were stopped after defined points in time (0, 2, 5, 10, 20, 40, and 60 min) by adding the same amount of ice-cold acetonitrile/methanol (10:1). The mixtures were vortexed, followed by a centrifugation step (23.000 × g, 5 min). Aliquots of the obtained supernatant were analyzed by an analytical HPLC (for conditions see Plasma Stability).

[5] = plasma stability in human plasma; format: in vitro ADME; conditions: 37°C, pH 7.4, n=6
Description: as §1

[6] = tested on: CYP450, rat liver microsomes; assay: stability against liver microsomes (CYP450), rat; format: in vitro ADME; conditions: after 60 min, n=4
Description: as §2

human MCHR1 (hMCHR1) = molecular target: human MCHR1 (hMCHR1); design: method as in PMID 12118247; conditions: Cos-7 cells expressing the human MCHR1; cited from earlier work
[7] = design: method as in PMID 10908045; conditions: cited from earlier work
porcine carboxylesterase = assay: stability against carboxylesterase (Michaelis-Menten kinetics); format: in vitro ADME; conditions: porcine carboxylesterase 80 I.U., PBS pH 7.4, 37°C
Description: The method used was slightly modified from Nics et al.. Incubations of different amounts (10, 30, 50, 70, 100, 200 μg/ml) of FE@SNAP were accomplished with a constant quantity of 80 International Units (I.U.) of porcine carboxylesterase under physiological conditions (PBS, pH 7.4, 37°C). The use of selected concentrations of FE@SNAP was based on an optimal choice to create Michaelis-Menten kinetics (MMK). 35 μl of the incubation-mixture were stopped after defined points in time (0, 60, 120, 180, and 240 min) by adding the same amount of ice-cold acetonitrile/methanol (10:1) and then vortexed. After centrifugation of the reaction mixtures (23.000 × g, 5 min), 20 μL of the obtained supernatant were analyzed by analytical HPLC (for conditions see Plasma Stability). The MMK of FE@SNAP was calculated by using GraphPad Prism software Version 5.0 (La Jolla, CA, USA).

hMCHR2 = molecular target: T2, hMCHR2 (Homo sapiens, UniProt Q969V1); assay: preliminary competition binding against [^125I]MCH on hMCHR2
T2 construct: purchased PerkinElmer; host or cells: CHO-K1 cell membranes (recombinant expression)
T2 sequence (Q969V1 whole entry): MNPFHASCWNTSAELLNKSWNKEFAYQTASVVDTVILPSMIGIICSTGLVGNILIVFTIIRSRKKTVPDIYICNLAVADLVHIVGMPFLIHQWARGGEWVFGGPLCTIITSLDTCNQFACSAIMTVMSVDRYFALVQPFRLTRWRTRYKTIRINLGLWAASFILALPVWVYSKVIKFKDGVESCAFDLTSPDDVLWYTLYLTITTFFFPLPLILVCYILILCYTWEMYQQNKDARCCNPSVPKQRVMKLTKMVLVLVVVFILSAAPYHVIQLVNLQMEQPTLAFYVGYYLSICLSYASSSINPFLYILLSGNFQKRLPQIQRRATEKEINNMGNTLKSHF
Source text: [^18F]fluoride was produced via the ^18O(p,n)^18F reaction in a GE PET trace cyclotron (16.5-MeV protons; GE Medical Systems, Uppsala, Sweden). H2^18O (HYOX18; > 98%) was purchased from Rotem Europe (Leipzig, Germany). Typical beam currents were 48–52 μA and irradiation was stopped as soon as the desired activity level was reached (approx. 25–30 GBq). Anion-exchange cartridges (PS-HCO3) for [^18F]fluoride trapping were obtained from Macherey-Nagel (Dueren, Germany). The precursor compound (Tos@SNAP; 4, Fig. 1) and the reference standard (FE@SNAP) were synthesized in cooperation with the Department of Drug and Natural Product Synthesis of the University of Vienna (Austria). Solid phase extraction (SPE) cartridges SepPak® C18-plus and the Oasis HLB 6cc Vac (200 mg) were purchased from Waters (Waters® Associates, Milford, MA, USA). Sterile water Ecotainer® and 0.9% saline solution were purchased from B. Braun (Melsungen, Germany). 3% saline solution was obtained from a local pharmacy (Landesapotheke Salzburg, Austria). A 125 mM phosphate buffer was prepared by dissolving 0.224g sodium dihydrogen phosphate-monohydrate and 1.935g disodium hydrogen phosphate-dihydrate (both from Merck, Darmstadt, Germany) in 100 mL of sterile water. Phosphate-buffered saline (PBS) concentrate (10:1) was obtained from Morphisto (Frankfurt, Germany). […]

COCC1=C(C(=O)O[11CH3])[C@H](c2ccc(F)c(F)c2)N(C(=O)NCCCN2CCC(c3cccc(NC(C)=O)c3)CC2)C(=O)N1 [[^11C]SNAP-7941]
degradation in rat plasma (in words) [1]: rapid enzymatic degradation

COCC1=C(C(=O)OCC[18F])[C@H](c2ccc(F)c(F)c2)N(C(=O)NCCCN2CCC(c3cccc(NC(C)=O)c3)CC2)C(=O)N1 [[^18F]FE@SNAP]
degradation in rat plasma (in words) [2]: completely metabolized
degradation in rat plasma ([2]; initially (0 min), 37°C, pH 7.4, n=11): 32.44 ± 33.5%
chromatographic logD (HPLC-based logD analysis; polymeric ODP-50 HPLC column): 3.83
fraction unbound ([3]; heparinized plasma, read-out: plasma free fraction (f1)): 0.126 ± 0.002
Kd (hMCHR1): 2.9 nM
enzymatic degradation by CYP450 [4]: 5.39 ± 1.6%
degradation in human plasma ([5]; after 0 min): 0.48 ± 0.5%
degradation in human plasma ([5]; after 120 min): 3.87 ± 3.9%
enzymatic degradation by CYP450 [6]: 2.59 ± 1.8%

COCC1=C(C(=O)OC)[C@H](c2ccc(F)c(F)c2)N(C(=O)NCCCN2CCC(c3cccc(NC(C)=O)c3)CC2)C(=O)N1 [SNAP-7941, (+)-methyl (4S)-3-{[(3-{4-[3-(acetylamino)phenyl]-1-piperidinyl}propyl)amino]carbonyl}-4-(3,4-difluorophenyl)-6-(methoxymethyl)-2-oxo-1,2,3,4-tetrahydro-5-pyrimidinecarboxylate hydrochloride]
Kd (human MCHR1 (hMCHR1)): 0.18 nM

COc1ccccc1N1CCN(CCN(c2ccccn2)[11C](=O)C2CCCCC2)CC1 [[carbonyl-^11C]WAY-100635]
plasma free fraction [7]: 5.8 ± 0.2%

COCC1=C(C(=O)OCCF)C(c2ccc(F)c(F)c2)N(C(=O)NCCCN2CCC(c3cccc(NC(C)=O)c3)CC2)C(=O)N1 (stereo not drawn) [FE@SNAP]
limiting velocity (Vmax) (porcine carboxylesterase): 0.874 µM/min
Km (porcine carboxylesterase; read-out: Michaelis-Menten constant (Km)): 347 µM
Ki (hMCHR2): > 1000 nM
degradation in rat plasma (in words) [2]: complete
logD (HPLC-based logD analysis): 3.83 ± 0.1
plasma free fraction (f1) [3]: 12.6 ± 0.2%
